Assay results reported in patent US8993725B2, “Notch-based fusion proteins and uses thereof” (The Trustees of Columbia University in the City of New York, priority 2004, dated 2015).
Entries after “also recorded” stand apart in the source; their conditions may differ.

How the values were obtained:
Assay type in all cases: cell-based, Human
Ad-N1IC-transduced HUVEC = assay: Notch-induced budding of Ad-N1IC-transduced HUVEC on gel; details: for Effect of receptor tyrosine kinase inhibitors on budding of Ad-N1IC-HUVEC: inhibitors at 1 μM, Ad-N1IC 40 MOI, complete medium
Method: HUVEC were transduced with either Ad-LacZ or Ad-N1IC at 40 MOI. FIGS. 23A-23C show the effect of inhibitors for receptor tyrosine kinases on Notch-induced HUVEC budding. FIG. 23A is a photograph of budding of Ad-N1IC-transduced HUVEC treated with PD166866, ZD1893 at 1 μM and SU5416 at 0.5 μM. […] FIGS. 23F-G show promotion of Notch-induced HUVEC budding with PlGF stimulation. Ad-N1IC-transduced HUVEC were cultured on collagen gel with SFM, instead of complete medium, in the absence or presence of 50 ng/ml PlGF. […] FIGS. 23H-I show the effect of Flt-1 siRNA transfection on Flt1 expression. Ad-N1IC-transduced HUVEC were transfected with 200 pmol of either control (CT) or Flt-1 siRNA. […] Ad-N1IC-transduced HUVEC were transfected with either 100 or 200 pmol of siRNA and cultured on collagen gel for 2 days.
Either Ad-LacZ or Ad-N1IC-HUVEC at a MOI of 40 pfu/cell were cultured on collagen gel for 5 days in the absence or presence of GM6001 at 50 μm.
To test whether Notch signaling is down-stream of VEGF, we evaluated three distinct inhibitors for receptor tyrosine kinases, including VEGFR on N1IC-induced HUVEC budding, because three growth factors existed in complete medium (FIG. 23A-C). […] Thus, we examined whether activation of Notch signaling affected Flt1/VNGFR1 expression in HUVEC, because SU5416 inhibits both Flt1 and Flk1 kinase activity (15). […] PlGF increased the number of Ad-N1IC-HUVEC buds by 150%, compared to the absence of PlGF (FIG. 23F). Moreover, PlGF increased HUVEC buds containing multiple filopodia by 250% (FIG. 23G).

[1] = system: Notch signaling (CBF1 promoter activity) in HUVEC; assay: VEGF-induced Notch signaling, CBF1 promoter / CSL-luciferase reporter activity in HUVEC; details: Ad-VEGF-transduced HUVEC, 20 MOI
Method: To determine VEGF-induced Notch signaling, HUVEC which were infected with adenovirus were used. HUVEC plated 1-day prior in 6 well plates at 8.0×10^5 were infected with either Ad-LacZ as control or Ad-VEGF at indicated m.o.i. in the presence or absence of Ad-N1ECD/Fc. Two days after infection, infected HUVEC were re-seeded into 24-well plate at 1.5×10^5 cell in triplicate and cultured for 24 hours, and then transfected with 12.5 ng pRL-SV40 (Promega) and 137.5 ng pGA981-6 using Effectene transfection reagent (Qiagen). Cells were harvested either 1 or 2 days post-transfection and luciferase activity was determined by using the Dual-Luciferase® Reporter Assay System (Promega).
One can measure Notch signaling function by measuring transcriptional activity of CBF1 promoter, which is activated by binding of Notch-IC to CBF1. We measured CBF1 promoter activity in HUVEC which was infected with adenovirus encoding VECF-165 at different MOI (FIG. 6). Induction of CBF1 promoter was clearly detected in Ad-VEGF-infected HUVEC, compared to Ad-LacZ-infected cells in the MOI dependent manner. […] Thus VEGF induced Notch signaling activity.

HUVEC = HUVEC proliferation (CCK-8 kit); details: SFM with 1% FBS, 4 days
Method: These Figures show proliferation of Ad-VEGF165-transduced HUVEC. HUVEC were transduced with Ad-VEGF165 at the indicated dosages. Ad-LacZ was also co-infected to make the same total amount of adenovirus at a MOI of 40 pfu/cell. HUVEC were suspended in SFM supplemented with 1% FBS and then plated at 1×10^4 cells/well in 24-well multi-well plates with 0.4 ml of medium. After 4 days, cell numbers were determined using the CCK-8 kit and the results are indicated as the ratio of cell numbers determined to the number of control cells, which were transduced with Ad-GFP at a MOI of 40 pfu/cell. […] Ad-VEGF-transduced HUVEC were treated with SU5416 at the indicated dosages.
These Figures show the effect of alteration of Notch signaling on cell proliferation. The cells were transduced with the indicated adenoviruses. Ad-GFP was also co-infected to make the same total amount of adenovirus at a MOI of 60 pfu/cell. After 4 days, cell numbers were determined using the CCK-8 kit and results are indicated as the ratio of cell numbers determined to the number of control cells, which were transduced with AD-GFP at MOI of 60 pfu/cell. […] Transduced HUVEC were suspended in complete medium and then plated at 1×10^4 cells/well in 24-well multiwell plates with 0.4 ml of indicated medium (□: Ad-N1IC; ▪: Ad-N1ECDFc). […]

CNC(=O)[C@H](Cc1c[nH]c2ccccc12)NC(=O)[C@@H](CC(=O)NO)CC(C)C [GM6001]
Effect on budding of Ad-N1IC-HUVEC on collagen gel (Ad-N1IC-transduced HUVEC; GM6001 at 50 μm, 5 days): inhibition of budding; also recorded: clearly decreased budding
Effect on budding of Ad-N1IC-HUVEC on fibrin gel (Ad-N1IC-transduced HUVEC; data not shown): clearly decreased budding

COc1cc(OC)cc(-c2cc3cnc(N)nc3nc2NC(=O)NC(C)(C)C)c1 [PD166866]
Effect of receptor tyrosine kinase inhibitors on budding of Ad-N1IC-HUVEC (Ad-N1IC-transduced HUVEC): Neither PD166866 or ZD1893 affected budding

Cc1cc(C)c(/C=C2\C(=O)Nc3ccccc32)[nH]1 [SU5416, reference compound]
Effect of receptor tyrosine kinase inhibitors on budding of Ad-N1IC-HUVEC (Ad-N1IC-transduced HUVEC): clearly inhibited
Dose-dependency of effect on budding versus viability of Ad-N1IC-HUVEC (Ad-N1IC-transduced HUVEC; lower concentrations): selectively inhibited budding of Ad-N1IC-HUVEC with less reduction of viability at lower concentrations
Effect of compound treatment on VEGF-induced CSL-luciferase reporter activity [1]: decreased VEGF-induced CSL-luciferase reporter activity
Proliferation of Ad-VEGF-transduced HUVEC (HUVEC): inhibitory effect

COc1cc2ncnc(Nc3ccc(F)c(Cl)c3)c2cc1OCCCN1CCOCC1 [ZD1893]
Effect of receptor tyrosine kinase inhibitors on budding of Ad-N1IC-HUVEC (Ad-N1IC-transduced HUVEC): Neither PD166866 or ZD1893 affected budding

B1: PlGF: a selective ligand for Flt1 (protein, UniProt P49763 19-221, looked up)
Placenta growth factor: LPAVPPQQWALSAGNGSSEVEVVPFQEVWGRSYCRALERLVDVVSEYPSEVEHMFSPSCVSLLRCTGCCGDENLHCVPVETANVTMQLLKIRSGDRPSYVELTFSQHVRCECRHSPGRQSPDMPGDFRADAPSFLPPRRSLPMLFRMEWGCALTGSQSAVWPSSPVPEEIPRMHPGRNGKKQQRKPLREKMKPERCGDAVPRR
Increase of HUVEC buds containing multiple filopodia (Ad-N1IC-transduced HUVEC; 50 ng/ml PlGF, SFM, collagen gel): 250%
Increase of the number of Ad-N1IC-HUVEC buds (Ad-N1IC-transduced HUVEC; 50 ng/ml PlGF, SFM, collagen gel, compared to the absence of PlGF): 150%
